Laboratory results as given in ChEMBL document CHEMBL1764986, “Per-N-methylated analogues of an antitumor bicyclic hexapeptide RA-VII” (Bioorg Med Chem, 2011).

system: P388; assay: Cytotoxicity against mouse P388 cells; format: functional, cell-based

| SMILES | IC50 |
| --- | --- |
| COc1ccc(C[C@H]2C(=O)N(C)[C@@H](C)C(=O)N(C)[C@H]3Cc4ccc(cc4)Oc4cc(c(Br)cc4OC)C[C@@H](C(=O)N(C)[C@H](C)C(=O)N(C)[C@@H](C)C(=O)N2C)N(C)C3=O)cc1 | > 110 µM |
| COc1ccc(C[C@H]2C(=O)N(C)[C@@H](C)C(=O)N(C)[C@H]3Cc4ccc(cc4)Oc4cc(ccc4OC)C[C@@H](C(=O)N(C)[C@H](C)C(=O)N[C@@H](C)C(=O)N2C)N(C)C3=O)cc1 | 10 µM |
| COc1ccc(C[C@H]2C(=O)N[C@@H](C)C(=O)N(C)[C@H]3Cc4ccc(cc4)Oc4cc(ccc4OC)C[C@@H](C(=O)N[C@H](C)C(=O)N[C@@H](C)C(=O)N2C)N(C)C3=O)cc1 | 0.0022 µM |
| COc1ccc(C[C@H]2C(=O)N[C@@H](C)C(=O)N(C)[C@H]3Cc4ccc(cc4)Oc4cc(ccc4OC)C[C@@H](C(=O)N[C@H](C)C(=O)N(N)[C@@H](C)C(=O)N2C)N(C)C3=O)cc1 | 0.0057 µM |
| COc1ccc(C[C@H]2C(=O)N(C)[C@@H](C)C(=O)N(C)[C@H]3Cc4ccc(cc4)Oc4cc(ccc4OC)C[C@@H](C(=O)N(C)[C@H](C)C(=O)N(C)[C@@H](C)C(=O)N2C)N(C)C3=O)cc1 | 3.1 µM |
| COc1ccc(C[C@H]2C(=O)N(C)[C@@H](C)C(=O)N(C)[C@H]3Cc4ccc(cc4)Oc4cc(ccc4OC)C[C@@H](C(=O)N(C)[C@H](C)C(=O)N(N)[C@@H](C)C(=O)N2C)N(C)C3=O)cc1 | 49 µM |
